Values after ≈ are worked out from the molar mass of the structure shown.
System: Mycobacterium tuberculosis
Assay: Antimycobacterial activity against Mycobacterium tuberculosis H37Ra
Type: functional
Conditions: not given

First: C1=C\CCCC[C@@H]2CN3CCCC/C=C\CCCC[C@H]4C[C@H](CN(CCCCCC/1)C4)[C@H]2CC3 (relative stereo)
Second: C1=C\CCCCN2C[C@H]3CCCC/C=C\CCCCN4CC[C@@H]([C@H](CCCCCC/1)C4)[C@H](C3)C2 (relative stereo)
The MIC of the first is 2.5-fold lower: 2.14 µM (≈ 1 µg/mL) for the first, 5.34 µM (≈ 2.5 µg/mL) for the second.

System: Mycolicibacterium phlei
Assay: Antimycobacterial activity against Mycobacterium phlei assessed as diameter of inhibition zone at 20 ug/disc
Type: functional
Conditions: read-out: IZ

First: Cc1cc(O)c2c3c(c(O)c4c(c13)O[C@@H](C)[C@]4(C)CO)C(=O)OC2=O
Second: CC(C)=CCOc1cc(O)c2c3c(c(O)cc(C)c13)C(=O)OC2=O
The zone of inhibition at 20 µg/disc of the first is higher: 20 mm for the first, 16 mm for the second.

Work on `CC(C)=CCOc1cc(O)c2c3c(c(O)cc(C)c13)OC2=O` yielded a zone of inhibition at 20 µg/disc of 22 mm.

System: Mycobacterium tuberculosis
Assay: Antimycobacterial activity against Mycobacterium tuberculosis H37Rv
Type: functional, organism-based
Conditions: not given

Going from `COC(=O)/C1=C/c2c([nH]c3ccccc23)/C(C(=O)OC)=C\c2c1[nH]c1ccccc21` [CAULERPIN] to `CO[C@H]1/C=C/O[C@@]2(C)Oc3c(C)c(O)c4c(O)c(c(/C=N/N5CCN(C)CC5)c(O)c4c3C2=O)NC(=O)/C(C)=C\C=C\[C@H](C)[C@H](O)[C@@H](C)[C@@H](O)[C@@H](C)[C@H](OC(C)=O)[C@@H]1C` [RIFAMPIN], the IC50 rises from 240 nM to 550 nM (2.3-fold).

In the case of `CC(=O)O[C@H]1C[C@H]2[C@]3(C)CC[C@H]4C(C)(C)CCC[C@]4(C)[C@H]3C[C@@H](O)[C@]2(C)[C@@H]2C1=CC[C@H]2OC(C)=O`, the IC50 is reported as 2670 nM.

First: CC(=O)O[C@H]1C[C@H]2[C@]3(C)CC[C@H]4C(C)(C)CCC[C@]4(C)[C@H]3C[C@@H](O)[C@]2(C)[C@@H]2C1=CC[C@H]2OC(C)=O
Second: CC(=O)O[C@H]1C[C@@]2(C)[C@@H](CC[C@H]3[C@@]4(C)C=CC(=O)[C@@H](C)C4[C@H](OC(C)=O)C(=O)[C@@]32C)/C1=C(\CCC=C(C)C)C(=O)O (stereo partly specified)
The MIC of the first is 14-fold higher: 12.8 µM (≈ 6.23 µg/mL) for the first, 0.89 µM (≈ 0.506 µg/mL) for the second.

Going from `COC(=O)N[C@H]1[C@@H](C)O[C@@H](O[C@H]2C/C=C(\C)[C@@H]3C=C[C@@H]4[C@@H](O[C@@H]5C[C@@H](O[C@@H]6C[C@@H](O)[C@@H](O[C@H]7C[C@@H](C)[C@H](OC)[C@H](O)C7)[C@H](C)O6)[C@@H](O)[C@H](C)O5)[C@@H](C)C[C@H](C)[C@H]4[C@]3(C)C(=O)C3=C(O)[C@@]4(C[C@@H](C)C(CO)=C[C@H]4/C=C/2C)OC3=O)C[C@]1(C)[N+](=O)[O-]` to `COC(=O)N[C@H]1[C@@H](C)O[C@@H](O[C@H]2C/C=C(\C)[C@@H]3C=C[C@@H]4[C@@H](O[C@@H]5C[C@@H](O[C@@H]6C[C@@H](O)[C@@H](O[C@H]7C[C@@H](C)[C@H](OC)[C@H](O)C7)[C@H](C)O6)[C@@H](O)[C@H](C)O5)[C@@H](C)C[C@H](C)[C@H]4[C@]3(C)C(=O)C3=C(O)[C@@]4(C[C@@H](C)C(CO)=C[C@H]4/C=C/2C)OC3=O)C[C@]1(C)N`, the MIC rises from 13.5 µM (≈ 16 µg/mL) to 27.7 µM (≈ 32 µg/mL) (2.1-fold).

Going from `COC(=O)N[C@H]1[C@@H](C)O[C@@H](O[C@H]2C/C=C(\C)[C@@H]3C=C[C@@H]4[C@@H](O[C@@H]5C[C@@H](O[C@@H]6C[C@@H](O)[C@@H](O[C@H]7C[C@@H](C)[C@H](OC)[C@H](O)C7)[C@H](C)O6)[C@@H](O)[C@H](C)O5)[C@@H](C)C[C@H](C)[C@H]4[C@]3(C)C(=O)C3=C(O)[C@@]4(C[C@@H](C)C(COC(C)=O)=C[C@H]4/C=C/2C)OC3=O)C[C@]1(C)N` to `C=C(CC[C@@H](C)[C@H]1CC[C@H]2[C@@H]3CC=C4C[C@@H](O)CC[C@]4(C)[C@H]3CC[C@]12C)C(C)C`, the MIC rises from 26.7 µM (≈ 32 µg/mL) to 302 µM (≈ 120 µg/mL) (11-fold).

`C=C(CC[C@@H](C)[C@H]1CC[C@H]2[C@@H]3[C@@H](C=O)[C@]4(O)C[C@@H](O)CC[C@]4(C)[C@H]3CC[C@]12C)C(C)C` and `C=C(CC[C@@H](C)[C@H]1CC[C@H]2[C@@H]3C(C=O)=C4C[C@@H](O)CC[C@]4(C)[C@H]3CC[C@]12C)C(C)C` [PARGUESTEROL A] are within 1.5-fold of each other in MIC: 26.1 µM (≈ 11.2 µg/mL) for the first, 18.9 µM (≈ 7.81 µg/mL) for the second.

First: O=C1CCCN2[C@@H](CC1)C[C@]13CN4CCCC/C=C\CC[C@](O)(C=C(c5nccc6c5[nH]c5ccccc56)[C@@H]1CC4)[C@H]23
Second: O=C1CCCN2[C@@H](CC1)C[C@]13CN4CCCC/C=C\CC[C@](O)(C=C(c5nccc6c5[nH]c5ccc(O)cc56)[C@@H]1CC4)[C@H]23
The MIC of the first is 7.7-fold lower: 6.74 µM (≈ 3.81 µg/mL) for the first, 52.1 µM (≈ 30.2 µg/mL) for the second.

Going from `O[C@]12C=C(c3nccc4c3[nH]c3ccccc34)[C@@H]3CCN(CCCC/C=C\CC1)C[C@@]31C[C@@H]3/C=C\CCCCN3[C@H]12` [MANZAMINE A] to `O=C1CCCN2[C@@H](CC1)C[C@]13CN4CCCC/C=C\CC[C@](O)(C=C(c5nccc6c5[nH]c5c(O)cccc56)[C@@H]1CC4)[C@H]23`, the MIC falls from 1.64 µM (≈ 0.9 µg/mL) to 0.69 µM (≈ 0.401 µg/mL) (2.4-fold).

`O=CC1=C[C@@]2(O)CC/C=C\CCCCN3CC[C@@H]1[C@]1(C[C@@H]4/C=C\CCCCN4[C@H]12)C3` [IRCINAL] gave an MIC of 73.7 µM (≈ 30.2 µg/mL).

Target: T1, Phosphotyrosine protein phosphatase (Mycobacterium tuberculosis) (UniProt A0A045ISB3)
T1 sequence (whole entry): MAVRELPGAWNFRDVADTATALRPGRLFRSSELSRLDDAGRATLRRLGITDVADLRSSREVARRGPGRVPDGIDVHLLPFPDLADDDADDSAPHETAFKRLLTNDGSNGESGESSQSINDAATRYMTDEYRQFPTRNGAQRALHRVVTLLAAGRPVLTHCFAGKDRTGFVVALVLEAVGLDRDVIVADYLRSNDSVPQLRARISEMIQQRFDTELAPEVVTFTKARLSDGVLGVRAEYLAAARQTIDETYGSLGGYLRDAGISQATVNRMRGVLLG
Assay: Inhibition of Mycobacterium tuberculosis Protein Tyrosine Phosphatase B at 100 uM relative to control
Conditions: not given

First: CCCCCCSC1=C(SCCCCCC)C(=O)c2c(O)c3c(c(O)c2C1=O)C[C@](C)(O)[C@H](O)[C@H]3O
Second: CCCNC1=CC(=O)c2c(O)c3c(c(O)c2C1=O)C[C@](C)(O)[C@H](O)[C@H]3O
The inhibition of the first is higher: 56.2% for the first, 17.5 to 48.8% for the second.

`CNC1=CC(=O)c2c(O)c3c(c(O)c2C1=O)C[C@](C)(O)[C@H](O)[C@H]3O` and `COC1=CC(=O)c2c(O)c3c(c(O)c2C1=O)C[C@](C)(O)[C@H](O)[C@H]3O` cannot be ordered by inhibition: 17.5 to 48.8% for the first, 37% for the second.

First: COC1=CC(=O)c2c(cc3c(c2O)C[C@@H](O)[C@@](C)(O)C3)C1=O
Second: CNC1=CC(=O)c2c(O)c3c(c(O)c2C1=O)C[C@](C)(O)[C@H](O)C3
The inhibition of the first is higher: 17.5 to 48.8% for the first, 9.7% for the second.

`COC1=CC(=O)c2c(O)c3c(c(O)c2C1=O)C[C@]1(C)OC(=O)O[C@@H]1[C@H]3O` and `COC1=CC(=O)c2c(O)c3c(c(O)c2C1=O)C[C@]1(C)OCO[C@@H]1[C@H]3O` fall in the same range of inhibition: 17.5 to 48.8% for the first, 17.5 to 48.8% for the second.

`COC1=CC(=O)c2c(O)c3c(c(O)c2C1=O)C[C@]1(C)OC(C)(C)O[C@@H]1[C@H]3O` and `COC1=CC(=O)c2c(O)c3c(c(O)c2C1=O)C[C@]1(C)OC(C=C(C)C)O[C@@H]1[C@H]3O` (stereo partly specified) fall in the same range of inhibition: 17.5 to 48.8% for the first, 17.5 to 48.8% for the second.

`COc1cc(O)c2c(c1O)C(=O)c1cc(C)ccc1C2=O` and `COc1cc(O)c2c(c1O)C(=O)C1=C(C[C@@H](O)[C@@](C)(O)C1)C2=O` fall in the same range of inhibition: 17.5 to 48.8% for the first, 17.5 to 48.8% for the second.

System: Mycobacterium tuberculosis
Assay: Antimycobacterial activity against Mycobacterium tuberculosis
Type: functional
Conditions: not given

First: CSC1=CC2=C(C(=O)c3ccc([C@H]4C[C@@H](O)[C@H](O[C@H]5CC[C@H](O[C@H]6C[C@@H](O)[C@H](O)[C@@H](C)O6)[C@H](C)O5)[C@@H](C)O4)c(O)c3C2=O)[C@@]2(O[C@H]3CC[C@H](O)[C@H](C)O3)C(=O)C[C@](C)(O)C[C@@]12O
Second: CSC1=CC2=C(C(=O)c3ccc([C@H]4C[C@@H](O)[C@H](O)[C@@H](C)O4)c(O)c3C2=O)[C@@]2(O)C(=O)C[C@](C)(O)C[C@@]12O
The MIC of the first is 2.4-fold higher: 14 µM (≈ 12.5 µg/mL) for the first, 5.88 µM (≈ 3.13 µg/mL) for the second.

Compared with `Cc1cc(O)c2c3c(ccc2c1)C(=O)c1c(ccc([C@H]2C[C@@H](O)[C@H](O)[C@@H](C)O2)c1O)C3=O`, `CSC1=CC2=C(C(=O)c3ccc([C@H]4C[C@@H](O)[C@H](O)[C@@H](C)O4)c(O)c3C2=O)[C@@]2(O)C(=O)C=C(C)C[C@@]12O` is 1.7-fold higher in MIC: 14.4 µM (≈ 6.26 µg/mL) for the first, 24.3 µM (≈ 12.5 µg/mL) for the second.

Compared with `COC1=C(Br)C(O)[C@@]2(C=C1Br)CC(C(=O)NCCCCNC(=O)C1=NO[C@]3(C=C(Br)C(OC)=C(Br)C3O)C1)=NO2` (stereo partly specified), `COC(=O)c1c(C)cc2c(c1O)[C@@]1(O)C(=O)c3cc4c(c(O)c3C(=O)[C@@]1(OC)CC2)C(=O)C=C(N[C@H]1O[C@@H](C)[C@H](O)[C@@H](O)[C@H]1OC)C4=O` is 5.3-fold lower in MIC: 7.99 µM (≈ 6.54 µg/mL) for the first, 1.5 µM (≈ 1 µg/mL) for the second.

System: Mycobacterium tuberculosis
Assay: Antimycobacterial activity against Mycobacterium tuberculosis H37Rv assessed as inhibition of mycobacterial growth at 12.5 ug/ml relative to control
Type: functional
Conditions: not given

Compared with `CC(C)=C[C@@H]1C[C@H](C)[C@H]2CC[C@H](C)c3c2c1c(C)c1ncoc31` [PSEUDOPTEROXAZOLE], `CC(C)=CCC[C@H](C)[C@H]1CC[C@@H](C)c2c1ccc1ncoc21` is lower in inhibition at 12.5 µg/mL: 97% for the first, 66% for the second.

Compared with `CC1(C)CCC[C@]2(C)[C@H]3[C@H](C#N)c4cc(O)c(O)cc4O[C@@]3(C)CC[C@@H]12`, `CC1(C)CCC[C@]2(C)[C@H]3C(C#N)=C4C=C(O)C(=O)C=C4O[C@@]3(C)CC[C@@H]12` is lower in inhibition at 12.5 µg/mL: 96% for the first, 90% for the second.

`CC1(C)CCC[C@]2(C)[C@H]3C=C4C=C(O)C(=O)C=C4O[C@@]3(C)CC[C@@H]12` [PUUPEHENONE] gave an inhibition at 12.5 µg/mL of 99%.

System: Mycolicibacterium smegmatis
Assay: Antibiofilm activity against Mycobacterium smegmatis after 5 weeks
Type: functional
Conditions: not given

Going from `CC(C)=C/C=C\[C@H](C)[C@H]1CC[C@]2(C)C[C@H]3[C@H](C(=O)C[C@@]3(C)O)/C(C=O)=C\C[C@@H]12` to `CC(C)=C/C=C\[C@H](C)[C@H]1CC[C@]2(C)C[C@H]3[C@@H](C(=O)C[C@@]3(C)O)/C(C=O)=C\C[C@@H]12`, the MIC rises from 4.1 µM (≈ 1.58 µg/mL) to 65 µM (≈ 25 µg/mL) (16-fold).

Work on `CC(C)=C/C=C\[C@H](C)[C@H]1CC[C@]2(C)C[C@@H]3C(C)=CC(=O)[C@H]3/C(C=O)=C\C[C@@H]12` yielded an MIC of 17 µM (≈ 6.23 µg/mL).

System: Mycolicibacterium vaccae
Assay: Antimycobacterial activity against Mycobacterium vaccae assessed as diameter of inhibition zone at 50 ug/disc
Type: functional
Conditions: read-out: IZ

Compared with `CC[C@H]1/C=C/[C@H](O)[C@H](C=C(C)C)OC(=O)/C(C)=C/CC(=O)Nc2cc(O)cc3c2O/C(=C\C(=O)CC1)C(C)=C3`, `CC[C@H]1/C=C/[C@@H]([C@@H](O)C=C(C)C)OC(=O)/C(C)=C\CC(=O)Nc2cc(O)cc3c2O[C@@]2(CC1)CC(=O)[C@@H](C)[C@@H]3O2` is higher in zone of inhibition at 50 µg/disc: 12 mm for the first, 19 mm for the second.

Going from `CC[C@H]1/C=C/[C@@H]([C@@H](O)C=C(C)C)OC(=O)/C(C)=C\[C@@H]2C(=O)NC3=CC(=O)c4c(cc(C)c(O)c4C(=O)CC1)[C@@]32O` to `CC[C@H]1/C=C/[C@H](O)[C@H](C=C(C)C)OC(=O)[C@@]2(C)C=CC(=O)Nc3c2c(O)c2c(c(O)c(C)cc2c3O)C(=O)CC1`, the zone of inhibition at 50 µg/disc falls from 12 mm to 11 mm.

Reference: ChEMBL document CHEMBL4400517, “Marine natural products as potential anti-tubercular agents” (Eur J Med Chem, 2019)
